Assay results reported in the supplement of paper PMC10307832.

Legend:
Test in all cases: relative viability (nuclei count vs DMSO), 5 days (fraction); higher = more cells survive
Idelalisib + Linsitinib = compound: CC[C@H](Nc1ncnc2[nH]cnc12)c1nc2cccc(F)c2c(=O)n1-c1ccccc1 [Idelalisib] + C[C@]1(O)C[C@@H](c2nc(-c3ccc4ccc(-c5ccccc5)nc4c3)c3c(N)nccn32)C1 [Linsitinib] (partner 1 µM)
How it was run: (§1)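 Lung cancer cell lines, seeded in 1536-well plates, were treated the following day by pin tool with a single drug or with five library-drug doses (not always all listed) in √10 steps on top of a fixed anchor-drug dose. Cells were fixed and nuclei stained in one step after 5 days, and nuclei were counted. Relative viability is the nuclei count for treated wells divided by that for vehicle wells, reported as medians of duplicate plates.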

Pemetrexed + Phenformin = compound: Nc1nc2[nH]cc(CCc3ccc(C(=O)N[C@@H](CCC(=O)O)C(=O)O)cc3)c2c(=O)[nH]1 [Pemetrexed] + N=C(N)NC(=N)NCCc1ccccc1 [Phenformin] (partner 250 µM)
How it was run: as §1

Idelalisib + Bortezomib = compound: CC[C@H](Nc1ncnc2[nH]cnc12)c1nc2cccc(F)c2c(=O)n1-c1ccccc1 [Idelalisib] + CC(C)C[C@H](NC(=O)[C@H](Cc1ccccc1)NC(=O)c1cnccn1)B(O)O [Bortezomib] (partner 0.002 µM)
How it was run: as §1

Pemetrexed + Navitoclax = compound: Nc1nc2[nH]cc(CCc3ccc(C(=O)N[C@@H](CCC(=O)O)C(=O)O)cc3)c2c(=O)[nH]1 [Pemetrexed] + CC1(C)CCC(c2ccc(Cl)cc2)=C(CN2CCN(c3ccc(C(=O)NS(=O)(=O)c4ccc(N[C@H](CCN5CCOCC5)CSc5ccccc5)c(S(=O)(=O)C(F)(F)F)c4)cc3)CC2)C1 [Navitoclax] (partner 0.5 µM)
How it was run: as §1

Cell Line	relative viability (Idelalisib + Linsitinib; first compound 0.04 µM)	relative viability (Idelalisib + Linsitinib; first compound 0.1265 µM)	relative viability (Idelalisib + Linsitinib; first compound 1.265 µM)	relative viability (Idelalisib + Linsitinib; first compound 4 µM)	relative viability (Pemetrexed + Phenformin; first compound 0.002 µM)	relative viability (Pemetrexed + Phenformin; first compound 0.006325 µM)	relative viability (Pemetrexed + Phenformin; first compound 0.02 µM)	relative viability (Pemetrexed + Phenformin; first compound 0.06325 µM)	relative viability (Pemetrexed + Phenformin; first compound 0.2 µM)	relative viability (Idelalisib + Bortezomib; first compound 0.04 µM)	relative viability (Idelalisib + Bortezomib; first compound 0.1265 µM)	relative viability (Idelalisib + Bortezomib; first compound 1.265 µM)	relative viability (Idelalisib + Bortezomib; first compound 4 µM)	relative viability (Pemetrexed + Navitoclax; first compound 0.002 µM)	relative viability (Pemetrexed + Navitoclax; first compound 0.006325 µM)	relative viability (Pemetrexed + Navitoclax; first compound 0.02 µM)	relative viability (Pemetrexed + Navitoclax; first compound 0.06325 µM)	relative viability (Pemetrexed + Navitoclax; first compound 0.2 µM)	relative viability (Idelalisib + Linsitinib; first compound 0.4 µM)	relative viability (Idelalisib + Bortezomib; first compound 0.4 µM)
HOP-62	1.04	1.04	1.07	0.884	0.567	0.675	0.659	0.716	0.611	0.72	0.796	0.797	0.997	1.03	1.01	1.19	0.906	0.894	–	–
LC-2-ad	0.966	0.848	0.75	0.719	0.518	0.567	0.492	0.335	0.374	1.02	0.971	1.11	0.992	0.304	0.437	0.363	0.159	0.162	0.805	0.938
LCLC-97TM1	0.209	0.184	0.175	0.156	0.432	0.392	0.466	0.44	0.396	0.357	0.76	0.569	0.835	0.393	0.279	0.674	0.375	0.394	–	–
LOU-NH91	0.942	0.88	0.683	0.864	0.691	0.733	0.739	0.572	0.404	0.483	0.39	0.437	0.472	0.629	0.727	0.708	0.431	0.416	0.904	0.512
LU99A	0.473	0.528	0.43	0.446	0.784	0.93	0.848	0.779	0.786	1.29	1.13	1.33	1.11	0.73	0.75	0.774	0.87	0.748	0.489	1.1
LXF-289	1	0.978	1.07	0.978	0.497	0.504	0.525	0.52	0.479	1.08	0.925	1.05	1.04	0.881	1	0.994	0.993	0.929	0.938	0.995
NCI-H23	0.693	0.592	0.499	0.474	0.747	0.758	0.809	0.804	0.828	1.05	0.986	1.07	0.959	0.808	0.756	1.07	0.788	0.858	0.436	0.771
NCI-H322M	0.971	0.924	0.642	0.692	0.861	0.747	0.799	0.741	0.613	1.13	1.34	1.16	1.29	1.16	1.25	1.17	1.15	1.14	0.801	1.08
NCI-H441	0.43	0.437	0.438	0.41	0.594	0.793	0.515	0.555	0.393	0.406	0.453	0.608	0.37	–	0.457	0.605	0.6	0.48	–	–
NCI-H460	0.834	0.801	0.681	0.56	0.432	0.452	0.56	0.247	0.0552	0.782	1.03	1.23	1.04	0.945	1.1	1.33	0.388	0.0669	0.624	1.1
NCI-H520	0.98	0.935	0.894	0.648	0.567	0.756	0.756	0.65	0.501	0.464	0.552	0.634	0.278	0.963	1.08	1.25	1.11	1.08	0.856	0.367
NCI-H596	1.07	1.06	1.19	1.03	0.766	0.702	0.775	0.751	0.565	1	1.04	1.03	0.802	0.98	0.811	0.828	0.898	0.419	0.899	1
NCI-H647	0.882	1.19	0.805	0.976	0.457	0.445	0.598	0.482	0.236	0.998	1.13	0.905	0.737	1.13	0.987	1.15	0.954	0.308	0.93	0.813
NCI-H727	0.318	0.296	0.402	0.267	–	0.484	0.474	0.633	0.525	0.848	1.21	1.22	0.791	0.422	0.474	0.583	0.428	0.527	0.281	0.632
NCI-H838	0.926	1.01	1.01	0.8	0.616	0.546	0.792	0.379	0.155	0.835	0.95	1.03	0.635	1.17	1.12	1.33	0.893	0.361	0.891	0.476
NCI-H1355	0.893	0.789	0.701	0.596	0.432	0.468	0.45	0.503	0.438	1.26	1.29	1.23	1.17	0.86	0.885	0.951	0.942	0.872	0.599	0.987
